Key:
Format in all cases: cell-based
[1] = test system: IFN-γ production (IFN−γ産生); assay: 薬理試験6 IFN−γ産生抑制作用 (inhibition of IFN-γ production, human whole blood); conditions: concanavalin A (ConA), 37℃, 48 h, ELISA
IL-1 production (IL−1産生) = assay: 薬理試験4 IL−1産生抑制作用 (inhibition of IL-1 production, human whole blood); conditions: same method as pharmacological test 3 (human whole blood, LPS, 37℃, 24 h)
IL-6 production (IL−6産生) = assay: 薬理試験5 IL−6産生抑制作用 (inhibition of IL-6 production, human whole blood); conditions: same method as pharmacological test 3 (human whole blood, LPS, 37℃, 24 h)

IC50 [1]: 5 µM | IC50 (IL-1 production (IL−1産生)): 80 µM | IC50 (IL-6 production (IL−6産生)): ≥ 100 µM
Structure (SMILES): CCOc1ccc(-c2nc(-c3cccc(C(=O)O)n3)cs2)cc1OCC [実施例2]
